Data: patent publication US6673791B2, “Non-nucleoside reverse transcriptase inhibitors” (Boehringer Ingelheim (Canada) Ltd., priority 2001, dated 2004)
pEC50, pIC50: −log10 of the molar value. Like-named read-outs stand apart in the source and are kept apart here.

What was measured:
[1] = target: T1, K103N/Y181C double mutant RT (HIV-1 RT) (Human immunodeficiency virus type 1 group M subtype B, UniProt P03366, K702N/Y780C); test: biochemical
T1 construct: mutations that occur in the reverse transcriptase segment of the pol gene
Source text: (§1) Based upon testing of these compounds, as described below, it is known that they inhibit the RNA-dependent DNA polymerase activity of HIV-1 RT. […] Utilising the Reverse Transcriptase (RT) Assay described below, compounds can be tested for their ability to inhibit the RNA-dependent DNA polymerase activity of HIV-1 RT. Certain specific compounds described in the Examples which appear below, were so tested. The results of this testing appear in Table 4 as IC50 (nM) and Table 5 as EC50 (nM).
(§2) Reverse TranscriptASE (RT) Assays
(§3) The assays are as described in WO 01/96338A1, the contents of which are hereby incorporated herein. The results are listed in Tables 8 as IC50(nM) and EC50(nM).

[2] = target: T2, V106A mutant RT (HIV-1 RT) (Human immunodeficiency virus type 1 group M subtype B, UniProt P03366, V705A); test: biochemical; conditions: for IC50: IC50 V106A (nM); for pIC50: read-out: IC50 V106A
T2 construct: mutations that occur in the reverse transcriptase segment of the pol gene
Source text: as §1, §2, §3

WT RT (HIV-1 RT) = target: T3, WT RT (HIV-1 RT) (Human immunodeficiency virus type 1 group M subtype B, UniProt P03366); test: biochemical
T3 construct: mutations that occur in the reverse transcriptase segment of the pol gene
Source text: as §1, §2, §3

[3] = target: T4, Y188L mutant RT (HIV-1 RT) (Human immunodeficiency virus type 1 group M subtype B, UniProt P03366, Y787L); test: biochemical; conditions: for IC50: IC50 Y188L (nM); for pIC50: read-out: IC50 Y188L
T4 construct: mutations that occur in the reverse transcriptase segment of the pol gene
Source text: as §1, §2, §3

[4] = system: WT RT (HIV-1 wild type strain); test: EC50 assay, WT RT strain; format: cell-based
Source text: as §2, §3

[5] = system: K103N/Y181C (HIV-1 double mutant strain); test: EC50 assay, K103N/Y181C strain; format: cell-based
Source text: as §2, §3

[6] = Human immunodeficiency virus 1, read-out: EC50 WT RT (nM)
[7] = Human immunodeficiency virus 1, read-out: EC50 K103N/Y181C (nM), K103N/Y181C double mutant
[8] = K103N/Y181C double mutant RT, read-out: IC50 K103N/Y181C
[9] = wild type RT, read-out: IC50 WT RT
[10] = wild type; read-out: EC50 WT RT
[11] = K103N/Y181C double mutant; read-out: EC50 K103N/Y181C

Structure (SMILES)	pIC50 [1]	IC50 [2]	pIC50 (WT RT (HIV-1 RT))	IC50 [3]	EC50 [4, 6]	EC50 [5, 7]	pIC50 ([1]; read-out: IC50 K103N/Y181C, K103N/Y181C double mutant RT)	pIC50 (WT RT (HIV-1 RT); read-out: IC50 WT RT, wild type RT)	pIC50 [3]	pEC50 ([4]; read-out: EC50 WT RT; wild type)	pEC50 ([5]; read-out: EC50 K103N/Y181C; K103N/Y181C double mutant)	pIC50 [1, 8]	pIC50 [2]	pIC50 (WT RT (HIV-1 RT); [9])	pEC50 [4, 10]	pEC50 [5, 11]
CCN1c2ncc(CCOc3ccc(CCC(=O)O)c4ccccc34)cc2C(=O)N(C)c2ccc(Cl)nc21 [Entry 1022]	6.00 to 7.00	100 to 1000 nM	> 7.00	> 1000 nM	< 100 nM	< 100 nM										
CCN1c2ncc(CCOc3ccc(C(=O)O)c4c3CCCC4)cc2C(=O)N(C)c2ccc(Cl)nc21 [Entry 5002]	6.00 to 7.00	> 1000 nM	> 7.00	100 to 1000 nM	< 100 nM	< 100 nM										
CCN1c2ncc(CCOc3ccc(C(=O)O)c4c3CCCC4)cc2C(=O)N(C)c2ccc(OC)nc21 [Entry 5005]	6.00 to 7.00	> 1000 nM	> 7.00	100 to 1000 nM	< 100 nM	< 100 nM										
CCN1c2ncc(CCOc3ccc(/C=C/C(=O)O)c4ccccc34)cc2C(=O)Nc2c(C)cc(F)nc21 [Entry 1034]	6.00 to 7.00	< 100 nM	> 7.00	> 1000 nM	< 100 nM	< 100 nM										
CCN1c2ncc(CCOc3ccc(/C=C(\C)C(=O)O)c4ccccc34)cc2C(=O)N(C)c2ccc(F)nc21 [Entry 1037]	6.00 to 7.00	> 1000 nM	> 7.00	> 1000 nM	< 100 nM	< 100 nM										
CCN1c2ncc(CCOc3ccc(/C=C/C(=O)O)c4ccccc34)cc2C(=O)Nc2c(C)cc(Cl)nc21 [Entry 1030]	6.00 to 7.00	< 100 nM	> 7.00	> 1000 nM	< 100 nM	< 100 nM										
CCN1c2ncc(CCOc3ccc(/C=C(\C)C(=O)O)c4ccccc34)cc2C(=O)N(C)c2ccc(Cl)nc21 [Entry 1036]	6.00 to 7.00	100 to 1000 nM	> 7.00	> 1000 nM	< 100 nM	< 100 nM										
CCN1c2ncc(CCOc3ccc(/C=C(\C)C(=O)O)c4ccccc34)cc2C(=O)N(C)c2ccc(C)nc21 [Entry 1038]	6.00 to 7.00	> 1000 nM	> 7.00	> 1000 nM	< 100 nM	< 100 nM										
CCN1c2ncc(CCOc3ccc(CC(=O)O)c4c3CCCC4)cc2C(=O)N(C)c2ccc(F)nc21 [Entry 5008]	6.00 to 7.00	> 1000 nM	> 7.00	> 1000 nM	< 100 nM	< 100 nM										
CCN1c2ncc(CCOc3ccc(CC(C)C(=O)O)c4ccccc34)cc2C(=O)N(C)c2ccc(Cl)nc21 (stereo not drawn) [Entry 1044]	6.00 to 7.00	> 1000 nM	> 7.00	> 1000 nM	< 100 nM	< 100 nM										
C=C(CC(=O)O)c1ccc(OCCc2cnc3c(c2)C(=O)N(C)c2cccnc2N3CC)c2ccccc12 [Entry 1049]	6.00 to 7.00	> 1000 nM	> 7.00	> 1000 nM	< 100 nM	100 to 1000 nM										
CCN1c2ncc(CCOc3ccc(C(=O)O)c4ccccc34)cc2C(=O)Nc2c(C)cc(Cl)nc21 [Entry 1007]	6.00 to 7.00	100 to 1000 nM	> 7.00	> 1000 nM	< 100 nM	< 100 nM										
CCN1c2ncc(CCOc3ccc(CC(=O)O)c4ccccc34)cc2C(=O)N(C)c2ccc(Cl)nc21 [Entry 1010]	6.00 to 7.00	> 1000 nM	> 7.00	> 1000 nM	< 100 nM	< 100 nM										
CCN1c2ncc(CCOc3ccc(CC(=O)O)c4ccccc34)cc2C(=O)Nc2c(C)cc(Cl)nc21 [Entry 1012]	6.00 to 7.00	100 to 1000 nM	> 7.00	> 1000 nM	< 100 nM	100 to 1000 nM										
CCN1c2ncc(CCOc3ccc4cc(C(=O)NN)ccc4c3)cc2C(=O)N(C)c2cccnc21 [Entry 3002]	6.00 to 7.00	< 100 nM	> 7.00	> 1000 nM	< 100 nM	100 to 1000 nM										
CCN1c2ncc(CCOc3ccc(/C(C)=C/C(=O)O)c4ccccc34)cc2C(=O)N(C)c2cccnc21 [Entry 1048]	6.00 to 7.00	> 1000 nM	> 7.00	> 1000 nM	< 100 nM	< 100 nM										

Structure (SMILES)	pIC50 [1]	IC50 [2]	pIC50 (WT RT (HIV-1 RT))	IC50 [3]	EC50 [4, 6]	EC50 [5, 7]	pIC50 ([1]; read-out: IC50 K103N/Y181C, K103N/Y181C double mutant RT)	pIC50 (WT RT (HIV-1 RT); read-out: IC50 WT RT, wild type RT)	pIC50 [3]	pEC50 ([4]; read-out: EC50 WT RT; wild type)	pEC50 ([5]; read-out: EC50 K103N/Y181C; K103N/Y181C double mutant)	pIC50 [1, 8]	pIC50 [2]	pIC50 (WT RT (HIV-1 RT); [9])	pEC50 [4, 10]	pEC50 [5, 11]
CCN1c2ncc(CCOc3ccc(/C=C/C(=O)O)c4ccccc34)cc2C(=O)Nc2c(C)cc(Cl)nc21 [Entry 2018]		100 to 1000 nM					6.00 to 7.00	> 7.00	< 6.00	> 7.00	6.00 to 7.00					
CCN1c2ncc(CCOc3ccc(CCC(=O)O)c4ccccc34)cc2C(=O)N(C)c2ccc(F)nc21 [Entry 1023]	6.00 to 7.00	> 1000 nM	> 7.00	> 1000 nM	< 100 nM	< 100 nM										
CCN1c2ncc(CCOc3ccc(/C=C/C(=O)O)c4ccccc34)cc2C(=O)N(C)c2ccc(Cl)nc21 [Entry 1029]	6.00 to 7.00	100 to 1000 nM	> 7.00	100 to 1000 nM	< 100 nM	< 100 nM										
CCN1c2ncc(CCOc3ccc(NC(=O)CCC(=O)O)c4ccccc34)cc2C(=O)N(C)c2cccnc21 [Entry 2006]									< 6.00			6.00 to 7.00	< 6.00	> 7.00	> 7.00	6.00 to 7.00
CCN1c2ncc(CCOc3ccc(C(=O)O)c4c3CCN(C(=O)OC(C)(C)C)C4)cc2C(=O)N(C)c2cccnc21 [Entry 7003]	6.00 to 7.00	> 1000 nM	> 7.00	100 to 1000 nM	< 100 nM	< 100 nM										
CCN1c2ncc(CCOc3ccc(CC(=O)O)c4c3CCCC4)cc2C(=O)N(C)c2ccc(Cl)nc21 [Entry 5007]	6.00 to 7.00	100 to 1000 nM	> 7.00	100 to 1000 nM	< 100 nM	< 100 nM										
CCN1c2ncc(CCOc3ccc(CC(=O)O)c4ccccc34)cc2C(=O)N(C)c2cccnc21 [Entry 1008]									< 6.00			6.00 to 7.00	< 6.00	> 7.00	> 7.00	> 7.00
CCNC(=O)N1CCc2c(OCCc3cnc4c(c3)C(=O)N(C)c3cccnc3N4CC)ccc(C(=O)O)c2C1 [Entry 7006]	6.00 to 7.00	100 to 1000 nM	> 7.00	> 1000 nM	100 to 1000 nM	> 1000 nM										
CCN1c2ncc(CCOc3ccc(/C=C/C(=O)O)c4ccccc34)cc2C(=O)N(C)c2ccc(F)nc21 [Entry 1032]	6.00 to 7.00	100 to 1000 nM	> 7.00	100 to 1000 nM	< 100 nM	< 100 nM										
CCN1c2ncc(CCOc3ccc(CCC(=O)O)c4c3CCCC4)cc2C(=O)N(C)c2ccc(Cl)nc21 [Entry 5010]	6.00 to 7.00	> 1000 nM	> 7.00	100 to 1000 nM	< 100 nM	< 100 nM										
CCN1c2ncc(CCOc3cccc4c(S(=O)(=O)NCC(=O)O)cccc34)cc2C(=O)N(C)c2cccnc21 [Entry 2008]	> 7.00	100 to 1000 nM	> 7.00	100 to 1000 nM	100 to 1000 nM	100 to 1000 nM										
CCN1c2ncc(CCOc3ccc(C(=O)O)c4ccccc34)cc2C(=O)N(C)c2ccc(F)nc21 [Entry 1006]	6.00 to 7.00	> 1000 nM	> 7.00	> 1000 nM	< 100 nM	< 100 nM										
CCN1c2ncc(CCOc3ccc(CC(=O)NN)c4ccccc34)cc2C(=O)N(C)c2ccc(Cl)nc21 [Entry 1016]	> 7.00	100 to 1000 nM	> 7.00	100 to 1000 nM	< 100 nM	< 100 nM										
CCN1c2ncc(CCOc3ccc(/C=C/C(=O)O)c4ccccc34)cc2C(=O)N(C)c2ccc(C)nc21 [Entry 1033]	6.00 to 7.00	100 to 1000 nM	> 7.00	100 to 1000 nM	< 100 nM	< 100 nM										
CCN1c2ncc(CCOc3ccc(C(C)C(=O)O)c4ccccc34)cc2C(=O)N(C)c2cccnc21 (stereo not drawn) [Entry 1020]	6.00 to 7.00	> 1000 nM	> 7.00	> 1000 nM	< 100 nM	< 100 nM										
CCN1c2ncc(CCOc3ccc4cc(C(=O)NC(C)(C)C(=O)O)ccc4c3)cc2C(=O)N(C)c2cccnc21 [Entry 3003]	6.00 to 7.00	100 to 1000 nM	> 7.00	> 1000 nM	< 100 nM	100 to 1000 nM										
